The values below come from article PMC4549708, “Inhibition of neuraminidase by Ganoderma triterpenoids and implications for neuraminidase inhibitor design” (Scientific Reports, 2015).

The target in series [1] is T1, NA (H5N1) (Influenza A virus, UniProt K0C216). Put plainly: biochemical. Particulars: for Inhibition rate (%) NA (H5N1): 200 µM.
In another series the test system is NA (H7N9). The series is classed as biochemical. Particulars: 200 µM.
In series [2] the test system is H5N2 (A/Duck/Pennsylvania/84). In words: microbe, parasite or virus in culture. The series is classed as cell-based. The settings on record: unidentified influenza virus, H5N2, MDCK.
In the next series the test system is Influenza B (B/Lee/40). In words: microbe, parasite or virus in culture. The series is classed as cell-based.
The nature of series [3]: in vitro. Particulars: human.
Series [4] can be described thus: in vitro. The settings on record: dog.
For series [5], the system named is influenza A H1N1 (A/WSN/33). Particulars: cellular assay; cited from earlier work.
The target of the next series is NA (H1N1,09) (Influenza A virus, UniProt C3W5S3). Put plainly: biochemical. Particulars: for Inhibition rate (%) NA(H1N1,09): 200 μM of each compound, n = 3, means ± standard deviation; for IC50: in vitro NA inhibition assay (n = 3).
Series [6] deals with T1, NA (H5N1). The series is classed as biochemical, Influenza A virus A/Hubei/1/2011(H5N1).
The test system of series [7] is MDCK cells (Madin-Darby Canine Kidney cells).

Read-outs that look alike come from different tables or passages of the source.

As for `C/C(=C\CC[C@@H](C)[C@H]1C[C@H](O)[C@@]2(C)C3=CC[C@H]4C(C)(C)C(=O)CC[C@]4(C)C3=CC[C@]12C)C(=O)O` [Compound 2, Ganoderic acid TR], the inhibition at 200 µM on NA (H5N1) [1] (read-out: Inhibition rate (%) NA (H5N1)) came out at 96.5 ± 0.3%. Besides, the “Inhibition rate (%) NA(H7N9)” value with NA (H7N9) was 24.0 ± 1.8%. Besides, the half-inhibitory concentration (IC50) in series [2] was determined as 324 µM; in the series with Influenza B (B/Lee/40) (Influenza B virus, MDCK), 166 µM. In addition, the values for the CC50 in “in vitro [3]” and in the series “in vitro [4]” were 91.6 ± 3.4 µM and 299 µM, respectively.

For the compound `CC(=CCC[C@@H](C)[C@H]1CC[C@@]2(C)C3=CC[C@H]4C(C)(C)[C@@H](O)CC[C@]4(C)C3=CC[C@]12C)CO` [ganodermadiol], the IC50 in [5] was above 220 µM.

For `CC(=O)O[C@H]1C[C@H]([C@H](C)CC/C=C(\C)C(=O)O)[C@@]2(C)CC=C3C(=CC[C@H]4C(C)(C)C(=O)CC[C@]34C)[C@]12C` [Compound 1, Ganoderic acid T-Q], on NA (H1N1,09), the “Inhibition rate (%) NA(H1N1,09)” value was 81.7 ± 1.7% and the IC50 was 5.6 ± 1.9 µM. At NA (H5N1) [1], 1.2 ± 1 µM corresponded to half-maximal inhibition (IC50) and the “Inhibition rate (%) NA (H5N1)” value was 94.4 ± 0.4%. Moreover, in the series on NA (H7N9), the “Inhibition rate (%) NA(H7N9)” value came out at 27.4 ± 1.2%. In addition, on NA (H5N1) [6], the “Kiu (ESI dissociation constant)” value stood at 17.39, the “higher affinity to free NA than to the NA-substrate complex” value turned out to be 2.5 fold and the mode of inhibition entry is on record as “mixed inhibition mode”. In addition, the 50% inhibitory concentration (IC50) with Influenza B (B/Lee/40) (read-out: IC50) amounted to 190 µM. The same compound returned a CC50 in the series with MCF7 cells of 28.2 ± 0.8 µM. In series [7], the CC50 was found to be 41.1 µM.

For `C/C(=C/CC[C@@H](C)[C@H]1CC[C@@]2(C)C3=CC[C@H]4C(C)(C)C(=O)CC[C@]4(C)C3=CC[C@]12C)C(=O)O` [Compound 4, Ganoderic acid Sz], at NA (H1N1,09), the “Inhibition rate (%) NA(H1N1,09)” value came out at 60.1 ± 4.8% and the IC50 turned out to be 101 ± 35.9 µM. The “Inhibition rate (%) NA (H5N1)” value at NA (H5N1) [1] is recorded as 0.0%. In addition, the “Inhibition rate (%) NA(H7N9)” value in the series with NA (H7N9) was 17.8 ± 4.0%. Also, the CC50 with MCF7 cells was 50.6 ± 0.1 µM.

For `CC(=O)O[C@H]1C[C@H]([C@H](C)CC/C=C(\C)C(=O)O)[C@@]2(C)CC=C3C(=CC[C@H]4C(C)(C)[C@@H](O)CC[C@]34C)[C@]12C` [Compound 3, Ganoderic acid T-N], at NA (H1N1,09), the “Inhibition rate (%) NA(H1N1,09)” value came to 72.0 ± 5.5% and the IC50 was found to be 42 ± 13.5 µM. On NA (H5N1) [1], the IC50 was 2.7 ± 0.4 µM and the “Inhibition rate (%) NA (H5N1)” value was found to be 91.1 ± 0.8%. Further, in the series with NA (H7N9), the “Inhibition rate (%) NA(H7N9)” value came out at 25.6 ± 1.6%. Moreover, the CC50 in the series with MCF7 cells is 24.4 ± 2.4 µM.

Ganoderenic acid D [Compound 17]: the “Inhibition rate (%) NA(H1N1,09)” value on NA (H1N1,09) was found to be 50.4 ± 3.0%. On NA (H5N1) [1], the IC50 came out at 123 ± 22.5 µM and the “Inhibition rate (%) NA (H5N1)” value amounted to 74.2 ± 2.2%. Further, the “Inhibition rate (%) NA(H7N9)” value in the series with NA (H7N9) was found to be 35.9 ± 2.8%. For the same compound, the CC50 with MCF7 cells was above 200 µM.

For `C/C(=C\CC[C@@H](C)[C@H]1CC[C@@]2(C)C3=C(CC[C@]12C)[C@@]1(C)CC[C@H](O)C(C)(C)[C@@H]1CC3=O)CO` [lucidadiol], the IC50 in series [5] is 220 µM.

Take `CC(CC(=O)C[C@@](C)(O)C1=C[C@H](O)[C@]2(C)[C@]1(C)C(=O)C=C1[C@@]3(C)CCC(=O)C(C)(C)[C@@H]3C[C@H]3O[C@@]132)C(=O)O` (stereo partly shown) [applanoxidic acid G]: the IC50 in [5] was 190 µM.

For the compound `C/C(=C\C(=O)CC(C)C(=O)O)C1CC(O)C2(C)C3=C(C(=O)CC12C)C1(C)CCC(O)C(C)(C)C1CC3O` (stereo not shown) [Compound 16, Ganoderenic acid C], the “Inhibition rate (%) NA(H1N1,09)” value on NA (H1N1,09) was 27.9 ± 0.3%. Besides, the “Inhibition rate (%) NA (H5N1)” value on NA (H5N1) [1] is 30.6 ± 4.5%. The “Inhibition rate (%) NA(H7N9)” value in the series with NA (H7N9) was determined as 27.2 ± 0.5%. The CC50 with MCF7 cells is above 200 µM.
